Measured values reported in US9907800B2, “Kinase inhibitors and method of treating cancer” (University Health Network, priority 2010, dated 2018).
Counter-ions that a name gives are not always drawn. Like-named read-outs stand apart in the source and are kept apart here.

Legend:
[1] = biological target: Aurora B (Homo sapiens (Human), UniProt Q96GD4); test: Aurora B inhibition assay (Z-Lyte); format: biochemical; details: read-out: Aurora B IC50 Ranges
[2] = biological target: human PLK4 (Homo sapiens (Human), UniProt O00444); test: PLK4 inhibition assay (indirect ELISA); format: biochemical
human PLK4, sequence (O00444 1-391): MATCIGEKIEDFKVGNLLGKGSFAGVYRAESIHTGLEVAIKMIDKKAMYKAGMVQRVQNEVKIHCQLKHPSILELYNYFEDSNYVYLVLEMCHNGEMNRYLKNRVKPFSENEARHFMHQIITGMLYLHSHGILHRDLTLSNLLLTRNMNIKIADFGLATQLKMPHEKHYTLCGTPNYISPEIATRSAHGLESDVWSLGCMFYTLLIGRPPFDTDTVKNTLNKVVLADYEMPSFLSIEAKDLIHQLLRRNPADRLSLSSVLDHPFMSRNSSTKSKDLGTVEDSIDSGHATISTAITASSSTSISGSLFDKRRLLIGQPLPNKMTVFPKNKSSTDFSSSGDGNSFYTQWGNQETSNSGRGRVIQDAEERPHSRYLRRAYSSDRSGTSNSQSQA

Aurora B, sequence (Q96GD4 whole entry): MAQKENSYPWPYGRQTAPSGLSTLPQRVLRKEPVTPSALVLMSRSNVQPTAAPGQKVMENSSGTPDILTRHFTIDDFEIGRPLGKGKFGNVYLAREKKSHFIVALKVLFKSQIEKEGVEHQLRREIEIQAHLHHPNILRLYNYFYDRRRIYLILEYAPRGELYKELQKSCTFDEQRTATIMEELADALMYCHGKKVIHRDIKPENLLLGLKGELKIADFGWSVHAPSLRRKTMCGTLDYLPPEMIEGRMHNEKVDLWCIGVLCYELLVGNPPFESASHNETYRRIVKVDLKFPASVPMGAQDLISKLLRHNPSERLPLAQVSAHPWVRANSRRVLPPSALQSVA

| Structure (SMILES) | IC50 [1] [nM] | IC50 ([2]; read-out: PLK4 IC50 Ranges) [nM] | IC50 [2] [nM] |
| --- | --- | --- | --- |
| O=C1Nc2ccccc2[C@]12C[C@H]2c1ccc2c(I)n[nH]c2c1 (relative stereo) [Example A9, (1R*,2S*)-2-(3-iodo-1H-indazol-6-yl)spiro[cyclopropane-1,3′-indolin]-2′-one] | 100 to 1000 |  |  |
| O=C1Nc2ncc(Br)cc2[C@]12C[C@H]2c1ccc2c(/C=C/c3cccnc3)n[nH]c2c1 (relative stereo) [Example A27, (1R*,2S*)-5′-bromo-2-(3-((E)-2-(pyridin-3-yl)vinyl-1H-indazol-6-yl)spiro[cyclopropane-1,3′-pyrrolo[2,3-b]pyridin]-2′(1′H)-one] | < 100 | < 100 |  |
| COc1ccc2c(c1)[C@]1(C[C@H]1c1ccc3c(-c4ccc(N5CCNCC5)cc4)n[nH]c3c1)C(=O)N2 (relative stereo) [Example A48, (1R*,2S*)-5′-methoxy-2-(3-(4-(piperazin-1-yl)phenyl)-1H-indazol-6-yl)spiro[cyclopropane-1,3′-indolin]-2′-one 2,2,2-trifluoroacetate] | < 100 |  | < 100 |
| O=C1Nc2ccccc2[C@]12C[C@H]2c1ccc2c(/C=C/c3ccccn3)n[nH]c2c1 (relative stereo) [Example A53, (1R*,2S*)-2-(3-((E)-2-(pyridin-2-yl)vinyl)-1H-indazol-6-yl)spiro[cyclopropane-1,3′-indolin]-2′-one] | < 100 | < 100 |  |
| CN1C(=O)[C@@]2(C[C@H]2c2ccc3c(/C=C/c4ccc(CN5CCOCC5)cc4)n[nH]c3c2)c2ccccc21 (relative stereo) [Example A87, (1R*,2S*)-(E)-1′-methyl-2-(3-(4-(morpholinomethyl)styryl)-1H-indazol-6-yl)spiro[cyclopropane-1,3′-indolin]-2′-one 2,2,2-trifluoroacetate] | < 100 | < 100 |  |
| CN1C(=O)[C@@]2(C[C@H]2c2ccc3c(/C=C/c4ccc(CN5CCCCC5)cc4)n[nH]c3c2)c2ccccc21 (relative stereo) [Example A95, (1R*,2S*)-(E)-1′-methyl-2-(3-(4-(piperidin-1-ylmethyl)styryl)-1H-indazol-6-yl)spiro[cyclopropane-1,3′-indolin]-2′-one 2,2,2-trifluoroacetate] | < 100 | < 100 |  |
| CCN1CCN(c2ccc(-c3n[nH]c4cc([C@@H]5C[C@@]56C(=O)Nc5ccc(OC)cc56)ccc34)cc2)CC1 (relative stereo) [Example A98, (1R*,2S*)-2-(3-(4-(4-ethylpiperazin-1-yl)phenyl)-1H-indazol-6-yl)-5′-methoxyspiro[cyclopropane-1,3′-indolin]-2′-one 2,2,2-trifluoroacetate] | < 100 | < 100 |  |
| COc1ccc2c(c1)[C@]1(C[C@H]1c1ccc3c(/C=C/c4cccc(CN5CCOCC5)c4)n[nH]c3c1)C(=O)N2 (relative stereo) [Example A133, (1R*,2S*)-5′-methoxy-2-(3-(3-(morpholinomethyl)styryl)-1H-indazol-6-yl)spiro[cyclopropane-1,3′-indolin]-2′-one 2,2,2-trifluoroacetate] | < 100 | < 100 |  |
| COc1ccc2c(c1)[C@]1(C[C@H]1c1ccc3c(/C=C/c4cccc(CN(C)C)c4)n[nH]c3c1)C(=O)N2 (relative stereo) [Example A135, (1R*,2S*)-2-(3-(3-((dimethylamino)methyl)styryl-1H-indazol-6-yl)-5′-methoxyspiro[cyclopropane-1,3′-indolin]-2′-one 2,2,2-trifluoroacetate] | < 100 | < 100 |  |
| COc1ccc2c(c1)[C@]1(C[C@H]1c1ccc3c(-c4ccc(CCN5CCOCC5)cc4)n[nH]c3c1)C(=O)N2 (relative stereo) [Example A159, (1R*,2S*)-5′-methoxy-2-(3-(4-(2-morpholinoethyl)phenyl)-1H-indazol-6-yl)spiro[cyclopropane-1,3′-indolin]-2′-one 2,2,2-trifluoroacetate] | < 100 | < 100 |  |
| CN(C)Cc1ccc(/C=C/c2n[nH]c3cc([C@@H]4C[C@@]45C(=O)N(CC(N)=O)c4ccccc45)ccc23)cc1 (relative stereo) [Example A160, 2-((1R*,2S*)-(E)-2-(3-(4-((dimethylamino)methyl)styryl)-1H-indazol-6-yl)-2′-oxospiro[cyclopropane-1,3′-indoline]-1′-yl)acetamide 2,2,2-trifluoroacetate] | < 100 | < 100 |  |
| O=C1Nc2ccccc2[C@]12C[C@H]2c1ccc2c(I)n[nH]c2c1 [Example A10, (1R,2S)-2-(3-iodo-1H-indazol-6-yl)spiro[cyclopropane-1,3′-indolin]-2′-one] | 100 to 1000 |  |  |
| COc1ccc2c(c1)[C@]1(C[C@H]1c1ccc3c(/C=C/c4ccc(CN5CCOCC5)cc4)n[nH]c3c1)C(=O)N2C [Example A102, (1R,2S)-(E)-5′-methoxy-1′-methyl-2-(3-(4-(morpholinomethyl)styryl)-1H-indazol-6-yl)spiro[cyclopropane-1,3′-indolin]-2′-one hydrochloride] | < 100 |  |  |
| COc1ccc2c(c1)[C@]1(C[C@H]1c1ccc3c(-c4csc(CN5CCOCC5)c4)n[nH]c3c1)C(=O)N2 [Example A125, (1R,2S)-5′-methoxy-2-(3-(5-(morpholinomethyl)thiophen-3-yl)-1H-indazol-6-yl)spiro[cyclopropane-1,3′-indolin]-2′-one 2,2,2-trifluoroacetate] |  | < 100 |  |
| COc1ccc2c(c1)[C@]1(C[C@H]1c1ccc3c(/C=C/c4ccc(CCN5CCOCC5)cc4)n[nH]c3c1)C(=O)N2 [Example A177, (1R,2S)-(E)-5′-methoxy-2-(3-(4-(2-morpholinoethyl)styryl)-1H-indazol-6-yl)spiro[cyclopropane-1,3′-indolin]-2′-one 2,2,2-trifluoroacetate] | < 100 |  |  |

Second part, led by results:

| IC50 [1] [nM] | IC50 ([2]; read-out: PLK4 IC50 Ranges) [nM] | Structure (SMILES) | IC50 [2] [nM] |
| --- | --- | --- | --- |
| < 100 | < 100 | COc1ccc2c(c1)[C@]1(C[C@H]1c1ccc3c(-c4ccnc(N5CCN(C)CC5)c4)n[nH]c3c1)C(=O)N2 (relative stereo) [Example A37, (1R*,2S*)-5′-Methoxy-2-(3-(2-(4-methylpiperazin-1-yl)pyridin-4-yl)-1H-indazol-6-yl)spiro[cyclopropane-1,3′-indolin]-2′-one] |  |
| < 100 | < 100 | COc1ccc2c(c1)[C@]1(C[C@H]1c1ccc3c(-c4cccc(CO)c4)n[nH]c3c1)C(=O)N2 (relative stereo) [Example A43, (1R*,2S*)-2-(3-(3-(hydroxymethyl)phenyl)-1H-indazol-6-yl)-5′-methoxy spiro[cyclopropane-1,3′-indolin]-2′-one 2,2,2-trifluoroacetate] |  |
| < 100 | < 100 | COc1ccc2c(c1)[C@]1(C[C@H]1c1ccc3c(C#Cc4cccnc4)n[nH]c3c1)C(=O)N2 (relative stereo) [Example A52, (1R*,2S*)- and (1R*,2S*)-5′-methoxy-2-(3-(pyridin-3-ethynyl)-1H-indazol-6-yl)spiro[cyclopropane-1,3′-indolin]-2′-one] |  |
| 100 to 1000 | < 100 | N#Cc1ccc(/C=C/c2n[nH]c3cc([C@@H]4C[C@@]45C(=O)Nc4ccccc45)ccc23)cc1 (relative stereo) [Example A54, 4-((E)-2-(6-((1R*,2S*)-2′-oxospiro[cyclopropane-1,3′-indoline]-2-yl)-1H-indazol-3-yl)vinyl)benzonitrile] |  |
| 100 to 1000 | < 100 | CN1CCN(c2ccc(-c3n[nH]c4cc([C@@H]5C[C@@]56C(=O)Nc5ccc(N)cc56)ccc34)cc2)CC1 (relative stereo) [Example A86, (1R*,2S*)-5′-amino-2-(3-(4-(4-methylpiperazin-1-yl)phenyl)-1H-indazol-6-yl)spiro[cyclopropane-1,3′-indolin]-2′-one] |  |
| < 100 | < 100 | CN1CCN(c2ccc(-c3n[nH]c4cc([C@@H]5C[C@@]56C(=O)N(C)c5ccccc56)ccc34)cn2)CC1 (relative stereo) [Example A93, (1R*,2S*)-1′-methyl-2-(3-(6-(4-methylpiperazin-1-yl)pyridin-3-yl)-1H-indazol-6-yl)spiro[cyclopropane-1,3′-indolin]-2′-one bis(2,2,2-trifluoroacetate)] |  |
| < 100 | < 100 | COc1ccc2c(c1)[C@]1(C[C@H]1c1ccc3c(-c4ccc(N5CCN(C)CC5)nc4)n[nH]c3c1)C(=O)N2C (relative stereo) [Example A104, (1R*,2S*)-5′-methoxy-1′-methyl-2-(3-(6-(4-methylpiperazin-1-yl)pyridin-3-yl)-1H-indazol-6-yl)spiro[cyclopropane-1,3′-indolin]-2′-one bis(2,2,2-trifluoroacetate)] |  |
| 100 to 1000 | < 100 | NS(=O)(=O)c1cccc(-c2n[nH]c3cc([C@@H]4C[C@@]45C(=O)Nc4ccccc45)ccc23)c1 (relative stereo) [Example A130, 3-(6-((1R*,2S*)-2′-oxospiro[cyclopropane-1,3′-indoline]-2-yl)-1H-indazol-3-yl)benzenesulfonamide] |  |
| < 100 | < 100 | CCc1ccc2c(c1)[C@]1(C[C@H]1c1ccc3c(-c4ccc(N5CCN(C)CC5)cc4)n[nH]c3c1)C(=O)N2 (relative stereo) [Example A142, (1R*,2S*)-5′-ethyl-2-(3-(4-(4-methylpiperazin-1-yl)phenyl)-1H-indazol-6-yl)spiro[cyclopropane-1,3′-indolin]-2′-one 2,2,2-trifluoroacetate] |  |
| < 100 | < 100 | Cc1ccc2c(c1)[C@]1(C[C@H]1c1ccc3c(-c4ccc(N5CCN(C)CC5)cc4)n[nH]c3c1)C(=O)N2 (relative stereo) [Example A173, (1R*,2S)-5′-methyl-2-(3-(4-(4-methylpiperazin-1-yl)phenyl)-1H-indazol-6-yl)spiro[cyclopropane-1,3′-indolin]-2′-one 2,2,2-trifluoroacetate] |  |
| < 100 | < 100 | COc1ccc2c(c1)[C@]1(C[C@H]1c1ccc3c(/C=C/c4ccc(N5CCN(C)CC5)cc4)n[nH]c3c1)C(=O)N2 (relative stereo) [Example A174, (1R*,2S*)-(E)-5′-methoxy-2-(3-(4-(4-methylpiperazin-1-yl)styryl)-1H-indazol-6-yl)spiro[cyclopropane-1,3′-indolin]-2′-one 2,2,2-trifluoroacetate] |  |
